Source: paper PMC8121805, “Discovery of first-in-class inhibitors of ASH1L histone methyltransferase with anti-leukemic activity” (Nature Communications, 2021)
pIC50, pKd: −log10 of the molar value. Several values for one entry are separate records, joined by “and”; a condition that tells them apart may be missing. Equal entries are not always repeated.

Experiments:
MV4;11 cells = assay: MTT cell viability assay; type: cell-based, human; details: MTT, 7 days
Experimental: (§1) FBS and 1% penicillin/streptomycin. […] Media was changed on day 3 or 4 and compounds were resupplied. […] Cell suspensions (100 μL) were transferred to the 96-well plates for each sample in quadruplicate at the time of media change. At day 7, 10 µL of MTT reagent (M6494, Molecular Probes™) was added to each well of the 96 well plate and incubated at 37 °C for 4 h. The formazan was then solubilized by adding 100 µL acidified 10% SDS solution and incubated at 37 °C overnight. Plates were read for absorbance at 570 nm using a PHERAstar BMG microplate reader. The experiments were performed two times in quadruplicates with calculation of mean and SD for each condition. Data were analyzed in Prism 8.0.0 to obtain GI50 values.
(§2) Supplementary Figure 7. […] (a)
(§3) Titration curves from the MTT cell viability assay performed after 4, 7, and 11 (or 10) days of
(§4) Titration curves from the MTT cell viability assay performed after 7 days of treatment of KOPN8 ,
(§5) MOLM13 and MV4;11 cell lines harboring MLL1 translocation (MLL1-r) or K562 cell line (non-
(§6) Representative graphs are shown
(§7) from two independent MTT experiments performed for each cell line.

MOLM13 cells = assay: MTT cell viability assay; type: cell-based, human; details: MTT, 7 days
Experimental: as §1, §2, §3, §4, §5, §6, §7

[1] = tested on: MLL leukemia cells (MV4;11, MOLM13, KOPN8, RS4;11); assay: MTT cell viability assay, MLL leukemia cells as a group; type: cell-based, human; details: Homo sapiens, MLL leukemia cells
Experimental: Human leukemia cells K562, MV4;11 and RS4;11 (purchased from ATCC) and KOPN8, MOLM13 (purchased from DSMZ) were cultured in RPMI 1640 (Invitrogen) supplemented with 10% heat inactivated (h.i.) FBS and 1% penicillin/streptomycin (Invitrogen). SET2 cells (purchased from DSMZ) were cultured in RPMI 1640 supplemented with 20% h.i. FBS and 1% penicillin/streptomycin. Cells were plated at 1 × 10^5 to 2 × 10^5 cells/mL depending on cell line and treated with 0.25% DMSO or varying concentrations of compounds and incubated at 37 °C, 5% CO2 incubator for 7 days. Media was changed on day 3 or 4 and compounds were resupplied. […] Cell suspensions (100 μL) were transferred to the 96-well plates for each sample in quadruplicate at the time of media change. At day 7, 10 µL of MTT reagent (M6494, Molecular Probes™) was added to each well of the 96 well plate and incubated at 37 °C for 4 h. The formazan was then solubilized by adding 100 µL acidified 10% SDS solution and incubated at 37 °C overnight. Plates were read for absorbance at 570 nm using a PHERAstar BMG microplate reader. The experiments were performed two times in quadruplicates with calculation of mean and SD for each condition. Data were analyzed in Prism 8.0.0 to obtain GI50 values.
Supplementary Figure 4. Cell viability assay for AS-6 in MLL leukemia cell lines. Titration curves from the MTT cell viability assay performed after 7 days of treatment of human MLL1- […]
replicates. Representative graphs are shown from two independent MTT experiments performed […]
as §2
Titration curves from the MTT cell viability assay performed after 4, 7, and 11 (or 10) days of […]
Titration curves from the MTT cell viability assay performed after 7 days of treatment of KOPN8 , MOLM13 and MV4;11 cell lines harboring MLL1 translocation (MLL1-r) or K562 cell line (non- […]
Representative graphs are shown from two independent MTT experiments performed for each cell line. GI50 values correspond to […]

[2] = target: ASH1L (amino acids 2046–2330) (Homo sapiens, UniProt Q9NR48); assay: Histone methyltransferase (HMT) assay; details: for pIC50: IC50, HMT assay with nucleosomes as substrate, mean ± s.d. from two independent experiments
Experimental: The mixtures of ASH1L and compounds were incubated at room temperature for 1 h. […] The reaction was continued for 1 h at room temperature, then quenched by addition of 10% Trichloroacetic acid (TCA) and then transferred to 96-well filter plates (Millipore sigma, MSFBN6B), washed twice with 10% TCA and then once with 200-proof ethanol. After extensive drying, 70 µL of Microscint-O scintillant (PerkinElmer) was added and counts per minute (CPM) were measured using a MicroBeta microplate counter (PerkinElmer). Titration curves were plotted using Prism (GraphPad Prism 8.0.0.) and IC50 values were calculated.

[3] = target: ASH1L SET domain (2069–2288) (Homo sapiens, UniProt Q9NR48); assay: Isothermal titration calorimetry (ITC); details: for kcal/mole of injectant: ITC isotherm
Experimental: All samples were extensively degassed by vacuum aspiration for 20 min prior to measurements. […] All titration data were analyzed with a single-site fitting model using Origin 7.0.

[4] = Log[compound] (M) -5.30642 (4: -5.30643)

With `CS(=O)(=O)N1CCC(n2cc(-c3cccc(C(N)=S)c3)c3ccc(CNC(=O)Cc4c[nH]cn4)cc32)CC1` [AS-6] the “% activity MV4;11” value (MV4;11 cells; log[compound] -4.30103) was 54.5576% and 57.6227% and 55.8763% and 56.7674%, the “% activity MV4;11” value (MV4;11 cells; log[compound] -4.60206) was 56.8386% and 61.0443% and 58.6207% and 61.2225% and the “% activity MV4;11” value (MV4;11 cells; log[compound] -4.90309) was 61.2938% and 67.4597% and 60.9374%. For the same compound, the “% activity MV4;11” value (MV4;11 cells; log[compound] -5.20412) was 76.1205% and 82.5002% and 82.4289% and 79.6846%, the “% activity MV4;11” value (MV4;11 cells; log[compound] -5.50515) was 94.9746% and 100.606% and 92.9787% and 93.7272% and the “% activity MV4;11” value (MV4;11 cells; log[compound] -5.80618) was 95.5805% and 97.9685% and 95.0102% and 103.208%. For the same compound, the “% activity MV4;11” value (MV4;11 cells; log[compound] -6.10721) was 95.9013% and 98.3962% and 101.354% and 104.348%, the “% activity MOLM13” value (MOLM13 cells; log[compound] -4.30103) was 44.6695% and 48.1072% and 45.3243% and the “% activity MOLM13” value (MOLM13 cells; log[compound] -4.60206) was 58.0929% and 58.2566% and 58.584% and 59.3207%. The “% activity MOLM13” value (MOLM13 cells; log[compound] -4.90309) was 66.769% and 64.8864% and 66.8508%, the “% activity MOLM13” value (MOLM13 cells; log[compound] -5.20412) was 75.8543% and 77.8187% and 79.7831% and 79.8649% and the “% activity MOLM13” value (MOLM13 cells; log[compound] -5.50515) was 91.8969% and 80.7653% and 85.3489% and 88.2955%. The “% activity MOLM13” value (MOLM13 cells; log[compound] -5.80618) was 93.7794% and 90.9965% and 88.7047% and 81.3382%, the “% activity MOLM13” value (MOLM13 cells; log[compound] -6.10721) was 102.456% and 101.555% and 98.1993% and 97.7901% and the GI50 [1] was about 50 µM.

For `NC(=S)c1cccc(-c2c[nH]c3ccccc23)c1` [compound 2], the pIC50 [2] was 4.30, the “% activity” value ([2]; Log[compound] (M) -2.92082) was -0.3683% and -0.3506% and the “% activity” value ([2]; Log[compound] (M) -3.39794) was 16.0357% and 15.8766%. The “% activity” value ([2]; Log[compound] (M) -3.87506) was 38.4321% and 41.7641%, the “% activity” value ([2]; Log[compound] (M) -4.35218) was 49.8512% and 57.5848% and the “% activity” value ([2]; Log[compound] (M) -4.8293) was 59.6441% and 71.2665%. The “% activity” value [2, 4] was 79.3978% and 82.615%, the “% activity” value ([2]; Log[compound] (M) -5.78355) was 85.6112% and 97.322% and the “% activity” value ([2]; Log[compound] (M) -6.26067) was 88.298% and 98.5328%.

For `NCc1ccc2c(-c3cccc(C(N)=S)c3)cn(CCO)c2c1` [AS-5], the pKd [3] was 5.21, the “N (stoichiometry of binding)” value ([3]; ITC) was 1.1 and the kcal/mole of injectant ([3]; ASH1L-AS-5 molar ratio 0.12083) was -11648.3 kcal/mol. The kcal/mole of injectant ([3]; ASH1L-AS-5 molar ratio 0.18186) was -13231.7 kcal/mol, the kcal/mole of injectant ([3]; ASH1L-AS-5 molar ratio 0.2433) was -11678.6 kcal/mol and the kcal/mole of injectant ([3]; ASH1L-AS-5 molar ratio 0.30515) was -11475.1 kcal/mol. For the same compound, the kcal/mole of injectant ([3]; ASH1L-AS-5 molar ratio 0.36741) was -11317.2 kcal/mol, the kcal/mole of injectant ([3]; ASH1L-AS-5 molar ratio 0.43008) was -10998.9 kcal/mol and the kcal/mole of injectant ([3]; ASH1L-AS-5 molar ratio 0.49316) was -10679.7 kcal/mol. For the same compound, the kcal/mole of injectant ([3]; ASH1L-AS-5 molar ratio 0.55666) was -10389.6 kcal/mol, the kcal/mole of injectant ([3]; ASH1L-AS-5 molar ratio 0.62056) was -10042.7 kcal/mol and the kcal/mole of injectant ([3]; ASH1L-AS-5 molar ratio 0.68487) was -9579.7 kcal/mol. It also gave a kcal/mole of injectant ([3]; ASH1L-AS-5 molar ratio 0.7496) of -9123.74 kcal/mol, a kcal/mole of injectant ([3]; ASH1L-AS-5 molar ratio 0.81473) of -8548.86 kcal/mol and a kcal/mole of injectant ([3]; ASH1L-AS-5 molar ratio 0.88027) of -7938.47 kcal/mol. The kcal/mole of injectant ([3]; ASH1L-AS-5 molar ratio 0.94623) was -7340.59 kcal/mol, the kcal/mole of injectant ([3]; ASH1L-AS-5 molar ratio 1.0126) was -6928.78 kcal/mol and the kcal/mole of injectant ([3]; ASH1L-AS-5 molar ratio 1.07937) was -5852.59 kcal/mol. It also gave a kcal/mole of injectant ([3]; ASH1L-AS-5 molar ratio 1.14656) of -5058.91 kcal/mol, a kcal/mole of injectant ([3]; ASH1L-AS-5 molar ratio 1.21416) of -4429.92 kcal/mol and a kcal/mole of injectant ([3]; ASH1L-AS-5 molar ratio 1.28216) of -3902.54 kcal/mol. For the same compound, the kcal/mole of injectant ([3]; ASH1L-AS-5 molar ratio 1.35058) was -3390.49 kcal/mol, the kcal/mole of injectant ([3]; ASH1L-AS-5 molar ratio 1.41941) was -2944.08 kcal/mol and the kcal/mole of injectant ([3]; ASH1L-AS-5 molar ratio 1.48865) was -2536.04 kcal/mol. The kcal/mole of injectant ([3]; ASH1L-AS-5 molar ratio 1.5583) was -2250.86 kcal/mol, the kcal/mole of injectant ([3]; ASH1L-AS-5 molar ratio 1.62836) was -1941.24 kcal/mol and the kcal/mole of injectant ([3]; ASH1L-AS-5 molar ratio 1.69883) was -1790.53 kcal/mol. The kcal/mole of injectant ([3]; ASH1L-AS-5 molar ratio 1.76971) was -1545.36 kcal/mol, the kcal/mole of injectant ([3]; ASH1L-AS-5 molar ratio 1.841) was -1413.63 kcal/mol and the kcal/mole of injectant ([3]; ASH1L-AS-5 molar ratio 1.9127) was -1226.06 kcal/mol. The “improvement of the activity versus the original fragment hit” value [2] was “over 200 fold”, the pIC50 [2] was 5.40 and the “% activity” value ([2]; Log[compound] (M) -3.69897) was 2.662% and 1.923%. For the same compound, the “% activity” value ([2]; Log[compound] (M) -4.17609) was 6.814% and 8.134%, the “% activity” value ([2]; Log[compound] (M) -4.65321) was 17.9312% and 20.7044% and the “% activity” value ([2]; Log[compound] (M) -5.13033) was 34.0137% and 31.5644%. For the same compound, the “% activity” value ([2]; Log[compound] (M) -5.60746) was 45.8867% and 60.6988%, the “% activity” value ([2]; Log[compound] (M) -6.08458) was 80.7749% and 70.6538% and the “% activity” value ([2]; Log[compound] (M) -6.5617) was 92.8804% and 81.5471%. The “% activity” value ([2]; Log[compound] (M) -7.03882) was 105.285% and 87.6496%.

With `NCc1ccc2c(-c3cccc(C(N)=S)c3)c[nH]c2c1` [compound 4] the pIC50 [2] was 4.64 and 4.63, the “% activity” value ([2]; Log[compound] (M) -3.39794) was 6.033% and 2.5275% and the “% activity” value ([2]; Log[compound] (M) -3.87506) was 27.0096% and 20.8578%. The “% activity” value ([2]; Log[compound] (M) -4.35218) was 40.1717% and 36.6844%, the “% activity” value ([2]; Log[compound] (M) -4.8293) was 67.3184% and 49.0775% and the “% activity” value [2, 4] was 79.0319% and 80.9812%. For the same compound, the “% activity” value ([2]; Log[compound] (M) -5.78355) was 102.423% and 86.0958%, the “% activity” value ([2]; Log[compound] (M) -6.26067) was 109.022% and 106.93% and the “% activity” value ([2]; Log[compound] (M) -6.73779) was 106.089% and 90.3699%.

`NC(=S)c1cccc(-c2cn(CCO)c3ccccc23)c1` [compound 3] was tested, and the pIC50 [2] was 4.82, the “% activity” value ([2]; Log[compound] (M) -3.69897) was 9.186% and 9.699% and the “% activity” value ([2]; Log[compound] (M) -4.17609) was 18.9348% and 13.291%. The “% activity” value ([2]; Log[compound] (M) -4.65321) was 40.9235% and 30.2223%, the “% activity” value ([2]; Log[compound] (M) -5.13033) was 68.7027% and 45.0281% and the “% activity” value ([2]; Log[compound] (M) -5.60746) was 106.01% and 80.1368%. The “% activity” value ([2]; Log[compound] (M) -6.08458) was 97.0728% and 88.0528% and the “% activity” value ([2]; Log[compound] (M) -6.5617) was 107.183% and 116.125%.
